# Experimental data from patent US12258327B2, “5-membered heteroaryl-containing aminopyridine compounds as EGFR inhibitors” (YUHAN CORPORATION, priority 2021, dated 2025).
# Read-outs that look alike come from different tables or passages of the source.
# Key:
# EGFR del19/T790M/C797S = EGFR del19/T790M/C797S (Homo sapiens, UniProt P00533, C797S/DEL746-750/T790M); experiment: Biochemical EGFR kinase assay (Lance Ultra TR-FRET), triple mutant del19/T790M/C797S
# Description: (§1) Biochemical EGFR kinase assays were conducted using Lance Ultra time-resolved fluorescence resonance energy transfer (TR-FRET) technology from Perkin-Elmer. Compounds of the invention were initially diluted to 20 mM in 100% DMSO for storage and made into kinase buffer solution to create a compound concentration ranging from 0.003 μM and 10 μM.
# (§2) Each kinase reactions were incubated at room temperature for 1 hour and then stopped by the addition of 4 μL of stop solution (10 mM EDTA). The specific Europium-labeled-anti-phosphopeptide antibody (PerkinElmer, AD0069) diluted in LANCE detection buffer was then added to a final concentration of 2 nM. After 60 minutes incubation at room temperature the LANCE signal was measured on an EnVision Multilabel Reader (Perkin-Elmer). Excitation wavelength was set at 320 nm and emission monitored at 615 nm (donor) and 665 nm (acceptor). The IC50 values were determined using GraphPad prism software (GraphPad Software, Inc., San Diego, CA, USA).
# EGFR wildtype (WT) = EGFR wildtype (WT) (Homo sapiens, UniProt P00533); experiment: Biochemical EGFR kinase assay (Lance Ultra TR-FRET), wildtype
# Description: as §1, §2
# EGFR del19/C797S = EGFR del19/C797S (Homo sapiens, UniProt P00533, C797S/DEL746-750); experiment: Biochemical EGFR kinase assay (Lance Ultra TR-FRET), double mutant del19/C797S
# EGFR del19/C797S, sequence (P00533 with tags, fused parts or gaps DEL746-750/C797S): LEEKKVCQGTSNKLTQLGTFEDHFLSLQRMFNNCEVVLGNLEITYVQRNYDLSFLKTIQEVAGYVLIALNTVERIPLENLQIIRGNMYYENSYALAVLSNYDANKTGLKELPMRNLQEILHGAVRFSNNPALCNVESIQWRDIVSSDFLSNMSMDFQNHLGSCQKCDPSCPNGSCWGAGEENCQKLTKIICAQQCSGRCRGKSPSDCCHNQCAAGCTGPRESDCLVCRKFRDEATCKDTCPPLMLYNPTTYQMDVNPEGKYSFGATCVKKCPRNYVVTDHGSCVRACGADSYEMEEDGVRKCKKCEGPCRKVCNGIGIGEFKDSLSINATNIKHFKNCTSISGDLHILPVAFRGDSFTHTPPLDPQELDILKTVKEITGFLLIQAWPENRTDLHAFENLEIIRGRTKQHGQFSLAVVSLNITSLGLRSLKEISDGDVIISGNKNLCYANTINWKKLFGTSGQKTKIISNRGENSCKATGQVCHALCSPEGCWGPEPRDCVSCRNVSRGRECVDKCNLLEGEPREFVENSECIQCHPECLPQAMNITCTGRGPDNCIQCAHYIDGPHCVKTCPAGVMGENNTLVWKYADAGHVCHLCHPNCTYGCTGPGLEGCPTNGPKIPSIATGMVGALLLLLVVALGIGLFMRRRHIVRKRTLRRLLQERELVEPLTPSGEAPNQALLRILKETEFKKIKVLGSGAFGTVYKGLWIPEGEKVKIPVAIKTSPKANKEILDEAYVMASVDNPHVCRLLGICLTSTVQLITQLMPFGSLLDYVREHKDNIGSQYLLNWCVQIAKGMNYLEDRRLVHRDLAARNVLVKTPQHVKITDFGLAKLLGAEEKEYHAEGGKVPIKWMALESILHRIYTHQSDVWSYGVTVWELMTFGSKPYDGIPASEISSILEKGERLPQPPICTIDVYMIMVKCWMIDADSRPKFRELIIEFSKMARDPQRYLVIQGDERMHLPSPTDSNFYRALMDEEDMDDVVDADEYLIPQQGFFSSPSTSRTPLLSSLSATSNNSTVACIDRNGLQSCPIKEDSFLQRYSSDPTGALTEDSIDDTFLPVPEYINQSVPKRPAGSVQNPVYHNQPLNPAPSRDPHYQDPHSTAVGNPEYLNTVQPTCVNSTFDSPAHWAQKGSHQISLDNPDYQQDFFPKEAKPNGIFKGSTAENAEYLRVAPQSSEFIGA
# Description: as §1, §2
# EGFR L858R/T790M/C797S = EGFR L858R/T790M/C797S (Homo sapiens, UniProt P00533, C797S/L858R/T790M); experiment: Biochemical EGFR kinase assay (Lance Ultra TR-FRET), triple mutant L858R/T790M/C797S
# EGFR L858R/T790M/C797S, sequence (P00533 25-1210 T790M/C797S/L858R): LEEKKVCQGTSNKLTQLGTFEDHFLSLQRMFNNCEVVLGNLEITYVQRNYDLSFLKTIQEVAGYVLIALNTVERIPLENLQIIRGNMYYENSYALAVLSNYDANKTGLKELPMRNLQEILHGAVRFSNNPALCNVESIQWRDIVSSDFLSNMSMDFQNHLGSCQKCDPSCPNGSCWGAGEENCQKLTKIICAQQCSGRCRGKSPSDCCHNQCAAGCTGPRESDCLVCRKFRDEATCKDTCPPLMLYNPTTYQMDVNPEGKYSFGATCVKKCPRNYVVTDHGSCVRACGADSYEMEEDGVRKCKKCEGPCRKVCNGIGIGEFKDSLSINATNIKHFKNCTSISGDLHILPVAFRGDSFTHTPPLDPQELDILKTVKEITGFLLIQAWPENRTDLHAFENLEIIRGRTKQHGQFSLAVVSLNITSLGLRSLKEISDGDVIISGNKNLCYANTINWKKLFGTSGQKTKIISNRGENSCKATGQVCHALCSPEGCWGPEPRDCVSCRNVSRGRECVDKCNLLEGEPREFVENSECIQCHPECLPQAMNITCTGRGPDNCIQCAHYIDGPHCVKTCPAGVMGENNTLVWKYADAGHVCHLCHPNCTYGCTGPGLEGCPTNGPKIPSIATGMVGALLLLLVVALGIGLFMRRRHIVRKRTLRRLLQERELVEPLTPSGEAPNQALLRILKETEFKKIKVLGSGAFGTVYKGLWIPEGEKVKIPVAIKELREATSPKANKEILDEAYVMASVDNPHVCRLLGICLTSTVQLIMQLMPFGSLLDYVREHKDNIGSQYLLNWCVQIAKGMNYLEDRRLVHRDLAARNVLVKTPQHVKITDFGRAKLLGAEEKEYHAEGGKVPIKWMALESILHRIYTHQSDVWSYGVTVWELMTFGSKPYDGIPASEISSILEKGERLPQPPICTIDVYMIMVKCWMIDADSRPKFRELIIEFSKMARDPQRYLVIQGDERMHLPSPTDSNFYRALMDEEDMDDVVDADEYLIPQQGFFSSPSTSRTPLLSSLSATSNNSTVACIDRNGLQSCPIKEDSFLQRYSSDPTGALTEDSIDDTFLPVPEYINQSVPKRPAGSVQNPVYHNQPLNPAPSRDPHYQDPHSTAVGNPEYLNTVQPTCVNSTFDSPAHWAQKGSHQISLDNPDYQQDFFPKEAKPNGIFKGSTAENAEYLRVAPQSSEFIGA
# Description: as §1, §2
# EGFR L858R/C797S = EGFR L858R/C797S (Homo sapiens, UniProt P00533, C797S/L858R); experiment: Biochemical EGFR kinase assay (Lance Ultra TR-FRET), double mutant L858R/C797S
# EGFR L858R/C797S, sequence (P00533 25-1210 C797S/L858R): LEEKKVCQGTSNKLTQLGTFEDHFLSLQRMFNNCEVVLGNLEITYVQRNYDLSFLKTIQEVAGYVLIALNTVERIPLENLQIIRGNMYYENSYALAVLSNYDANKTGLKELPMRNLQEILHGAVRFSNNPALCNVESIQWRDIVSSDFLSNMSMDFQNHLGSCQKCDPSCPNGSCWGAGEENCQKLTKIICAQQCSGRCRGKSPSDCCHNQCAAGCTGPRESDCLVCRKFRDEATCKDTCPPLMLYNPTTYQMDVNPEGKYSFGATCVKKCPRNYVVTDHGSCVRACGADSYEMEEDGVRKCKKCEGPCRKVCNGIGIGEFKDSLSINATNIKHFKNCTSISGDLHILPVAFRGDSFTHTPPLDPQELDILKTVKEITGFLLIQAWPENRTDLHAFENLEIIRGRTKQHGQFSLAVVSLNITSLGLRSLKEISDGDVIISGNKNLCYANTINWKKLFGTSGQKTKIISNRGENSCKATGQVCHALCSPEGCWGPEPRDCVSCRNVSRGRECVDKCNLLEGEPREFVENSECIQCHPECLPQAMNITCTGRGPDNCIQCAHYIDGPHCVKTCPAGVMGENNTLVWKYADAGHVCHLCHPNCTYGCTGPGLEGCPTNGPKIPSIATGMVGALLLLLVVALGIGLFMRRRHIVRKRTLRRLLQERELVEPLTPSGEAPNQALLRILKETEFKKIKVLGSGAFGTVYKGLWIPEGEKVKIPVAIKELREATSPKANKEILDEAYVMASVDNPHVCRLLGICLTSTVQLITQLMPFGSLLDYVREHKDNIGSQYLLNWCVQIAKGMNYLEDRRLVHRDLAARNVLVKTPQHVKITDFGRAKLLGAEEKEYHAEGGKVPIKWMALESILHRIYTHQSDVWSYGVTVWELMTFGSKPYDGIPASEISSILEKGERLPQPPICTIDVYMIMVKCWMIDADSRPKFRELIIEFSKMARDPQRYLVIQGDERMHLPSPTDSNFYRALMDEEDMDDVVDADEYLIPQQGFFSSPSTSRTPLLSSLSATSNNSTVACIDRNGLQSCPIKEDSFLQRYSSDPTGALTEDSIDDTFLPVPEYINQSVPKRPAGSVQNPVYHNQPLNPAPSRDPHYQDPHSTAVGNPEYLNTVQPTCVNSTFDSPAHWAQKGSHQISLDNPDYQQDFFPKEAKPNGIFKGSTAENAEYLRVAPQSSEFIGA
# Description: as §1, §2
# [1] = Km ATP, read-out: IC50 del19/T790M/C797S (nM) Km ATP
# [2] = Km ATP, read-out: IC50 WT (nM) Km ATP
# [3] = Km ATP, read-out: IC50 del19/C797S (nM) Km ATP
# [4] = IC50 WT (nM) 100 μM ATP, 100 μM ATP
# [5] = IC50 L858R/T790M/C797S (nM) 100 μM ATP, 100 μM ATP
# [6] = Km ATP, read-out: IC50 L858R/T790M/C797S (nM) Km ATP
# [7] = IC50 L858R/C797S (nM) 100 μM ATP, 100 μM ATP
# [8] = IC50 del19/T790M/C797S (nM) 100 μM ATP, 100 μM ATP
# [9] = Km ATP, read-out: IC50 L858R/C797S (nM) Km ATP
# EGFR del19/T790M/C797S, sequence (P00533 with tags, fused parts or gaps DEL746-750/T790M/C797S): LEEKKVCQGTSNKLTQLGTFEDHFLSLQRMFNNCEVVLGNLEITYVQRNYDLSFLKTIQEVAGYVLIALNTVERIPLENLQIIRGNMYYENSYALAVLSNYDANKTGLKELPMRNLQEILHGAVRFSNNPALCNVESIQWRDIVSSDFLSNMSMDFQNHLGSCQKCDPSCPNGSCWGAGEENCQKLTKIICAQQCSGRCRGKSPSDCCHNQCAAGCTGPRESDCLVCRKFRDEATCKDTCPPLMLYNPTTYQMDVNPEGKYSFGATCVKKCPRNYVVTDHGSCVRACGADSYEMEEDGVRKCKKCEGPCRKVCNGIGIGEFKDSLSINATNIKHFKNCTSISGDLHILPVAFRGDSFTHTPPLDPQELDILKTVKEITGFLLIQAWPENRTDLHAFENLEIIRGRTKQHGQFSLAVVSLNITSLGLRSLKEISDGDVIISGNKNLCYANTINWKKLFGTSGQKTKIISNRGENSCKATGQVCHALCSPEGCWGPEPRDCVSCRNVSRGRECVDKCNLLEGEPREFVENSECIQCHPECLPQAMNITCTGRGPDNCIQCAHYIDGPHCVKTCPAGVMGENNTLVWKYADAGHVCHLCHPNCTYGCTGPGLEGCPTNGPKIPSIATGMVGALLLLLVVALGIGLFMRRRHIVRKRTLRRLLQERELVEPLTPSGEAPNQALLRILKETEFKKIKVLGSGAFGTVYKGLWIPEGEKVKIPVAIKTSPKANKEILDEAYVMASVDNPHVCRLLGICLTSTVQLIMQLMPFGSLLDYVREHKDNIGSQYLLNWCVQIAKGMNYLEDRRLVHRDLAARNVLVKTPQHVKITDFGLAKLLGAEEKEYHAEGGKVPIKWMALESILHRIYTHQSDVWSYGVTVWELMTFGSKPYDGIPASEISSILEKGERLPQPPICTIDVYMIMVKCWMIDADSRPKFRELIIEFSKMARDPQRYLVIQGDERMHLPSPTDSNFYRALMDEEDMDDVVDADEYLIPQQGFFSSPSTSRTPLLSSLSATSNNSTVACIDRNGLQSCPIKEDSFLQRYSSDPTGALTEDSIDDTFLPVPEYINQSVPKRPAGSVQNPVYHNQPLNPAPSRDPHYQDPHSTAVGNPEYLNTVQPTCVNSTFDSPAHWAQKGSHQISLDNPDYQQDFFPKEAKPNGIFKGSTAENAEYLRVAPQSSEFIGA
Structure (SMILES),IC50 (EGFR del19/T790M/C797S; [1]) [nM],IC50 (EGFR wildtype (WT); [2]) [nM],IC50 (EGFR del19/C797S; [3]) [nM],IC50 (EGFR wildtype (WT); [4]) [nM],IC50 (EGFR L858R/T790M/C797S; [5]) [nM],"IC50 (EGFR del19/C797S; IC50 del19/C797S (nM) 100 μM ATP, 100 μM ATP) [nM]",IC50 (EGFR L858R/T790M/C797S; [6]) [nM],IC50 (EGFR L858R/C797S; [7]) [nM],IC50 (EGFR del19/T790M/C797S; [8]) [nM],IC50 (EGFR L858R/C797S; [9]) [nM]
"C[C@]1(O)CC[C@@H](Nc2cc(Nc3ccnc(-c4cnn(S(=O)(=O)C5CC5)c4)n3)ncc2-n2ccc(OC(F)F)n2)CC1 [Example 187, (1s,4s)-4-((2-((2-(1-(Cyclopropylsulfonyl)-1H-pyrazol-4-yl)pyrimidin-4-yl)amino)-5-(3-(difluoromethoxy)-1H-pyrazol-1-yl)pyridin-4-yl)amino)-1-methylcyclohexan-1-ol]",0.7,282,15.4,–,–,–,0.5,–,–,–
"Cn1nc(-c2cnc(Nc3ccnc(-c4cnn(S(=O)(=O)C5CC5)c4)n3)cc2N[C@H]2CC[C@@](C)(O)CC2)cc1N1CCC(F)(F)CC1 [Example 307, (1s,4s)-4-((2-((2-(1-(Cyclopropylsulfonyl)-1H-pyrazol-4-yl)pyrimidin-4-yl)amino)-5-(5-(4,4-difluoropiperidin-1-yl)-1-methyl-1H-pyrazol-3-yl)pyridin-4-yl)amino)-1-methylcyclohexan-1-ol]",–,20.9,7.5,–,–,–,–,–,–,–
"CN(C)C(=O)C[C@H]1CC[C@@H](Nc2cc(Nc3ccnc(-c4cnn(S(=O)(=O)C5CC5)c4)n3)ncc2-c2cc(C(F)(F)F)n(C)n2)CC1 [Example 258, 2-((1s,4s)-4-((2-((2-(1-(Cyclopropylsulfonyl)-1H-pyrazol-4-yl)pyrimidin-4-yl)amino)-5-(1-methyl-5-(trifluoromethyl)-1H-pyrazol-3-yl)pyridin-4-yl)amino)cyclohexyl)-N,N-dimethylacetamide]",2.5,9,–,2070,2.8,–,1.4,26.7,5.1,–
"C[C@]1(O)CC[C@@H](Nc2cc(Nc3ccnc(-c4cnn(S(=O)(=O)C5CC5)c4)n3)ncc2-c2ccn(CCC(F)(F)F)n2)CC1 [Example 295, (1s,4s)-4-((2-((2-(1-(Cyclopropylsulfonyl)-1H-pyrazol-4-yl)pyrimidin-4-yl)amino)-5-(1-(3,3,3-trifluoropropyl)-1H-pyrazol-3-yl)pyridin-4-yl)amino)-1-methylcyclohexan-1-ol]",0.7,3.8,–,–,–,–,0.6,–,–,0.3
"CC(C)(O)[C@H]1CC[C@@H](Nc2cc(Nc3ccnc(-c4cnn(S(=O)(=O)C5CC5)c4)n3)ncc2-c2ccn(C3COC3)n2)CC1 [Example 283, 2-((1s,4s)-4-((2-((2-(1-(Cyclopropylsulfonyl)-1H-pyrazol-4-yl)pyrimidin-4-yl)amino)-5-(1-(oxetan-3-yl)-1H-pyrazol-3-yl)pyridin-4-yl)amino)cyclohexyl)propan-2-ol]",0.6,4.8,–,2000,0.5,–,0.3,2.9,0.6,0.6
"CN1CCN(c2nc(-c3cnc(Nc4ccnc(-c5cnn(S(=O)(=O)C6CC6)c5)n4)cc3N[C@H]3CC[C@@](C)(O)CC3)cs2)CC1 [Example 121, (1s,4s)-4-((2-((2-(1-(Cyclopropylsulfonyl)-1H-pyrazol-4-yl)pyrimidin-4-yl)amino)-5-(2-(4-methylpiperazin-1-yl)thiazol-4-yl)pyridin-4-yl)amino)-1-methylcyclohexan-1-ol]",1.2,12.8,–,8920,1.4,–,0.4,19.8,1.7,2.4

# The next lines start with the values.
IC50 (EGFR del19/T790M/C797S; [1]) [nM],IC50 (EGFR wildtype (WT); [2]) [nM],IC50 (EGFR del19/C797S; [3]) [nM],IC50 (EGFR wildtype (WT); [4]) [nM],IC50 (EGFR L858R/T790M/C797S; [5]) [nM],"IC50 (EGFR del19/C797S; IC50 del19/C797S (nM) 100 μM ATP, 100 μM ATP) [nM]",IC50 (EGFR L858R/T790M/C797S; [6]) [nM],IC50 (EGFR L858R/C797S; [7]) [nM],IC50 (EGFR del19/T790M/C797S; [8]) [nM],IC50 (EGFR L858R/C797S; [9]) [nM],Structure (SMILES)
6.4,229,39.7,–,–,–,–,–,–,–,"Cn1cc(C#Cc2cc(Nc3ccnc(-c4cnn(S(=O)(=O)C5CC5)c4)n3)ncc2-c2cnn(CC3CC3)c2)cn1 [Example 3, N-(5-(1-(Cyclopropylmethyl)-1H-pyrazol-4-yl)-4-((1-methyl-1H-pyrazol-4-yl)ethynyl)pyridin-2-yl)-2-(1-(cyclopropylsulfonyl)-1H-pyrazol-4-yl)pyrimidin-4-amine]"
3.1,5.9,–,7310,1.3,0.9,–,–,–,–,"C[C@]1(O)CC[C@@H](Nc2cc(Nc3ccnc(-c4cnn(S(=O)(=O)C5CC5)c4)n3)ncc2-c2cn(C(F)F)cn2)CC1 [Example 273, (1s,4s)-4-((2-((2-(1-(Cyclopropylsulfonyl)-1H-pyrazol-4-yl)pyrimidin-4-yl)amino)-5-(1-(difluoromethyl)-1H-imidazol-4-yl)pyridin-4-yl)amino)-1-methylcyclohexan-1-ol]"
10.6,–,317,–,–,–,13.2,–,–,–,"O=S(=O)(C1CC1)n1cc(-c2nccc(Nc3cc(C#Cc4cnn(C5CC5)c4)c(-c4cnn(C5CC5)c4)cn3)n2)cn1 [Example 5, N-(5-(1-Cyclopropyl-1H-pyrazol-4-yl)-4-((1-cyclopropyl-1H-pyrazol-4-yl)ethynyl)pyridin-2-yl)-2-(1-(cyclopropylsulfonyl)-1H-pyrazol-4-yl)pyrimidin-4-amine]"
–,–,–,> 10000,1,–,–,6.7,0.6,–,"CC(C)n1ccc(-c2cnc(Nc3ccnc(-c4cnn(S(=O)(=O)C5CC5)c4)n3)cc2N[C@H]2CC[C@@](C)(O)CC2)n1 [Example 84, (1s,4s)-4-((2-((2-(1-(Cyclopropylsulfonyl)-1H-pyrazol-4-yl)pyrimidin-4-yl)amino)-5-(1-isopropyl-1H-pyrazol-3-yl)pyridin-4-yl)amino)-1-methylcyclohexan-1-ol]"
16.1,–,347,–,–,–,19.5,–,–,–,"CC(C)n1cc(C#Cc2cc(Nc3ccnc(-c4cnn(S(=O)(=O)C5CC5)c4)n3)ncc2-c2cnn(C3CC3)c2)cn1 [Example 6, N-(5-(1-Cyclopropyl-1H-pyrazol-4-yl)-4-((1-isopropyl-1H-pyrazol-4-yl)ethynyl)pyridin-2-yl)-2-(1-(cyclopropylsulfonyl)-1H-pyrazol-4-yl)pyrimidin-4-amine]"
3.2,214,–,–,–,–,0.8,–,–,75.9,"Cn1cc(-c2cnc(Nc3ccnc(-c4cnn(S(=O)(=O)C5CC5)c4)n3)cc2C#CC(C)(C)O)cn1 [Example 4, 4-(2-((2-(1-(Cyclopropylsulfonyl)-1H-pyrazol-4-yl)pyrimidin-4-yl)amino)-5-(1-methyl-1H-pyrazol-4-yl)pyridin-4-yl)-2-methylbut-3-yn-2-ol]"
31.3,–,371,–,–,–,–,–,–,–,"Cn1cc(C#Cc2cc(Nc3ccnc(-c4cnn(S(=O)(=O)C5CC5)c4)n3)ncc2-c2cnn(C(F)F)c2)cn1 [Example 2, 2-(1-(Cyclopropylsulfonyl)-1H-pyrazol-4-yl)-N-(5-(1-(difluoromethyl)-1H-pyrazol-4-yl)-4-((1-methyl-1H-pyrazol-4-yl)ethynyl)pyridin-2-yl)pyrimidin-4-amine]"
0.8,15.3,–,5120,1,–,0.3,200,0.7,10.5,"CN(C)CC1(C)CCC(Nc2cc(Nc3ccnc(-c4cnn(S(=O)(=O)C5CC5)c4)n3)ncc2-c2ccn(C(F)F)n2)CC1 (centres unmarked) [Example 207, N^2-(2-(1-(Cyclopropylsulfonyl)-1H-pyrazol-4-yl)pyrimidin-4-yl)-5-(1-(difluoromethyl)-1H-pyrazol-3-yl)-N^4-(4-((dimethylamino)methyl)-4-methylcyclohexyl)pyridine-2,4-diamine]"
